Results on one compound are retold here after ChEMBL document CHEMBL5365456, “Isolation and biological activity of natural chalcones based on antibacterial mechanism classification” (Bioorg Med Chem, 2023).

Molecules are shown by their SMILES. In brackets after ≈: the same amount, converted by molar mass.

The test system of this assay is Mycobacterium tuberculosis. Nature of the assay: Antitubercular activity against multi-drug-resistant Mycobacterium tuberculosis M22 assessed as bacterial growth inhibition measured for 9 days. The note with it: M22, 216 h, time 9 day. The assay is classed as functional.

What is called MIC90 is the lowest concentration that inhibits either 90% of growth or 90% of the strains tested, depending on the study. Regarding `O=C(CCc1ccc(O)cc1)c1c(O)cc(O)cc1O` [PHLORETIN], the MIC90 came to 182 µM (≈ 49.9 µg/mL).
